Assay results taken from US20130217721A1, “COMPOSITIONS AND METHODS FOR DETECTION AND TREATMENT OF B-RAF INHIBITOR-RESISTANT MELANOMAS” (The Regents of the University of California, priority 2010, published 2013).

Legend:
[1] = system: SKMEL-239 PLX4032-resistant clones C1-5; assay: Proliferation assay of PLX4032-resistant clones; type: cell-based, human; details: all five resistant clones, albeit at slightly higher doses
Method: Cell proliferation and cell cycle analysis. All melanoma cell lines were generated by A. Houghton (MSKCC) or obtained from ATCC. 293H cells were obtained from Invitrogen. Cells were maintained in DMEM (293H and MEFs), or RPMI (all other cell lines) supplemented with 2 mM glutamine, antibiotics and 10% fetal bovine serum. We confirmed by DNA fingerprinting^20 that all PLX4032-resistant, SKMEL-239 clones were derived from the same patient, thus excluding the possibility of contamination (Table 6). For proliferation assays, cells were plated in 6 well plates and 24 hours later were treated with varying concentrations of inhibitors as indicated. IC50 values were calculated using Graph Pad Prism v.5. For cell cycle and apoptosis studies, cells were seeded in 6 well dishes the day prior to drug treatment. For analysis, both adherent and floating cells were harvested and stained with ethidium bromide as described previously^21.

[2] = system: M249 R sub-line (M249 R4); assay: Cell survival / proliferation assay (72 h); type: cell-based, human; details: for growth sensitivity to MEK inhibition: M249 R4, 72 h, in the presence or absence of PLX4032
Method: (§1) Cells were maintained in Dulbecco's modified Eagle medium (DMEM) with 10 or 20% fetal bovine serum and glutamine. shRNAs were sub-cloned into the lentiviral vector pLL3.7 and infections carried out with protamine sulphate. Stocks of PLX4032 (Plexxikon) and AZD6244 (commercially available) were made in DMSO. Cells were quantified using CellTiter-GLO Luminescence (Promega).
(§2) Cell proliferation experiments were performed in a 96-well format (five replicates), and baseline quantification performed at 24 h after cell seeding along with initiation of drug treatments (72 h). Stocks and dilutions of PLX4032 (Plexxikon), AZD6244 (Selleck Chemicals) and U0126 (Promega) were made in DMSO. siRNA pool (Dharmacon) transfections were carried out in 384-well format. TransIT transfection reagent (Mirus) was added to each well and incubated at 37° C. for 20 min. Subsequently, cells were reverse transfected, and the mixture was incubated for 51-61 h at 37° C. Cells were quantified using CellTiter 96 Aqueous One Solution (Promega) or CellTiter-GLO Luminescence (Promega) following the manufacturer's recommendations.
(§3) Cell culture, infections and drug treatments. Cells were maintained in DMEM with 10 or 20% fetal bovine serum and glutamine. shRNAs for B-RAF and C-RAF were sub-cloned into the lentiviral vector pLL3.7; pBabe B-RAF (V600E) was purchase (plasmid 17544, Addgene); viral supernatants generated by co-transfection with three packaging plasm ids into HEK293T cells; and infections carried out with protamine sulfate. Stocks and dilutions of PLX4032 (Plexxikon, Berkeley, Calif.) and AZD6244 (commercially available) were made in DMSO. Cells were quantified using CellTiter-GLO Luminescence (Promega) or crystal violet staining followed by NIH Image J quantification.

M395 R = assay: Cell survival assay (72 h); type: cell-based, human; details: M395 R (V600EB-RAF amplification-driven), 72 h
From the text: as §3

[3] = system: Pt55 R short-term culture; assay: Cell survival / proliferation assay (72 h); type: cell-based, human; details: for growth sensitivity to MEK inhibition: 72 h, in the presence or absence of PLX4032
Method: as §1, §2

[4] = system: M229 R sub-lines (M229 R5); assay: Cell survival / proliferation assay (72 h); type: cell-based, human; details: M229 R5, 72 h, PLX4032-resistant cells grown with PLX4032
Method: as §1, §2

[5] = system: M238 R sub-lines (M238 R1); assay: Cell survival / proliferation assay (72 h); type: cell-based, human; details: M238 R1, 72 h, PLX4032-resistant cells grown with PLX4032
Method: as §1, §2

[6] = system: Pt48 R short-term culture; assay: Cell survival / proliferation assay (72 h); type: cell-based, human; details: for growth sensitivity to inhibitor: 72 h, PLX4032-resistant cells grown with PLX4032
Method: as §1, §2

[7] = target: T1, V5-tagged p61 BRAF(V600E/R509H) (human, UniProt P15056 1-766); assay: co-immunoprecipitation of FLAG- and V5-tagged forms from 293H cells
T1 construct: domain: splice variant lacking exons 4-8 (554 amino acids); Co-expressed with the FLAG-tagged form in 293H cells; also called dimerization mutant p61 BRAF(V600E/R509H); not shown: V5 tag

## O=C(NOC[C@H](O)CO)c1ccc(F)c(F)c1Nc1ccc(I)cc1F [PD0325901]
[1]
  sensitivity to the MEK inhibitor: retained sensitivity

## Cn1cnc2c(F)c(Nc3ccc(Br)cc3Cl)c(C(=O)NOCCO)cc21 [AZD6244]
[2]; M249 R4 (Q61KN-RAS-driven), 72 h
  proliferation under MEKi treatment: decreased proliferation
[2]
  growth sensitivity to MEK inhibition: sensitive
M395 R
  proliferation under MEKi treatment: decreased proliferation
[3]
  growth sensitivity to MEK inhibition: sensitive
[4]
  growth sensitivity to inhibitor: highly resistant
[5]
  growth sensitivity to inhibitor: highly resistant
[6]
  growth sensitivity to inhibitor: highly resistant

## CCCS(=O)(=O)Nc1ccc(F)c(C(=O)c2c[nH]c3ncc(Cl)cc23)c1F [PLX4720]
[3]
  growth resistance to B-RAF inhibitor: resistance
[6]
  growth resistance to B-RAF inhibitor: resistance

## N#CC(=C(/N)Sc1ccccc1N)/C(C#N)=C(\N)Sc1ccccc1N [U0126]
[2]
  growth sensitivity to MEK inhibition: sensitive
[3]
  growth sensitivity to MEK inhibition: sensitive
[4]
  growth sensitivity to inhibitor: highly resistant
[5]
  growth sensitivity to inhibitor: highly resistant
[6]
  growth sensitivity to inhibitor: highly resistant

B1: FLAG-tagged p61 BRAF(V600E/R509H) (enzyme, human, UniProt P15056 1-766, looked up)
chain: MAALSGGGGGGAEPGQALFNGDMEPEAGAGAGAAASSAADPAIPEEVWNIKQMIKLTQEHIEALLDKFGGEHNPPSIYLEAYEEYTSKLDALQQREQQLLESLGNGTDFSVSSSASMDTVTSSSSSSLSVLPSSLSVFQNPTDVARSNPKSPQKPIVRVFLPNKQRTVDLIRDQGFRGDGGSTTGLSATPPASLPGSLTNVKALQKSPGPQRERKSSSSSEDRNRMKTLGRRDSSDDWEIPDGQITVGQRIGSGSFGTVYKGKWHGDVAVKMLNVTAPTPQQLQAFKNEVGVLRKTHHVNILLFMGYSTKPQLAIVTQWCEGSSLYHHLHIIETKFEMIKLIDIARQTAQGMDYLHAKSIIHRDLKSNNIFLHEDLTVKIGDFGLATEKSRWSGSHQFEQLSGSILWMAPEVIRMQDKNPYSFQSDVYAFGIVLYELMTGQLPYSNINNRDQIIFMVGRGYLSPDLSKVRSNCPKAMKRLMAECLKKKRDERPLFPQILASIELLARSLPKIHRSASEPSLNRAGFQTEDFSLYACASPKTPIQAGGYGAFPVH
notes: domain: splice variant lacking exons 4-8 (554 amino acids); Expressed in 293H cells; immunoprecipitated with FLAG antibody; also called dimerization-deficient mutant; not shown: FLAG tag
[7]
  binding result: no binding
